Assay results taken from patent US20150246025A1, “2-PHENYL-5-HETEROCYCLYL-TETRAHYDRO-2H-PYRAN-3-AMINE COMPOUNDS FOR USE IN THE TREATMENT OF DIABETES AND ITS ASSOCIATED DISORDERS” (CADILA HEALTHCARE LIMITED, priority 2012, published 2015).

Key:
DPP-IV enzyme = molecular target: T1, DPP-IV enzyme (Homo sapiens, UniProt P27487); experiment: In vitro DPP-IV inhibitory activity using enzymatic (fluorescence-based) assay; format: biochemical; conditions: soluble human DPP-IV, H-Gly-Pro-AMC 200 μM, pH 7.8, 25° C., 30 min; read-out: % In-vitro DPPIV Inhibition IC50
T1 construct: soluble human proteins (DPP-IV enzyme) produced in a baculovirus expression system; made in house; host or cells: baculovirus expression system (Life Technologies)
Protocol: In Vitro DPP-IV Inhibitory Activity Using Enzymatic Assay:
In vitro enzyme (DPP-IV) inhibitory activity was determined using fluorescence-based assay (Anal. Biochem., 200, 352, 1992). The Gly-Pro-AMC was used as a substrate (which is cleaved by the enzymes to release the fluorescent AMC) and soluble human proteins (DPP-IV enzyme) produced in a baculovirus expression system (Life Technologies) was used as the enzyme source. The H-Gly-Pro-AMC (200 μM) was incubated with DPP-IV enzyme in the presence of various concentrations (30 & 100 nM) of test compounds. Reaction was carried out at pH 7.8 (HEPES buffer 25 mM containing 1.0% BSA, 140 mM NaCl, 16 mM MgCl2, 2.8% DMSO) in a total volume of 100 μl at 25° C. for 30 min., in the dark. Reaction was terminated with acetic acid (25 μl of 25% solution). Activity (fluorescence) was measured using Spectra Max fluorometer (Molecular Devices, Sunnyvale Calif.) by exciting at 380 nm and emission at 460 nm.

C57BL/6J mice = experiment: In vivo antihyperglycaemic/antidiabetic activity (OGTT), acute single dose 120-min time-course; conditions: Mus musculus, 2 h; male C57BL/6J mice, acute single dose 0,3 mg/kg po, 120-min time-course, n = 6, Mean ± SEM; read-out: In vivo OGTT C57; % Glucose change
Protocol: Acute single dose 120-min time-course experiments were carried out in male C57BL/6J mice, age 8-12 weeks, bred in-house. Animals were housed in groups of 6 animals per cage, for a week, in order to habituate them to vivarium conditions (25±4° C., 60-65% relative humidity, 12: 12 h light: dark cycle, with lights on at 7.30 am). All the animal experiments were carried out according to the internationally valid guidelines following approval by the ‘Zydus Research Center animal ethical committee’.
The in-vivo glucose lowering properties of the test compounds were evaluated in C57BL/6J (mild hyperglycemic) animal models as described below. Two days prior to the study, the animals were randomized and divided into groups (n=6), based upon their fed glucose levels. On the day of experiment, food was withdrawn from all the cages, water was given ad-libitum and were kept for overnight fasting. Vehicle (normal saline)/test compounds were administered orally, on a body weight basis. Soon after the 0 min. blood collection from each animal, the subsequent blood collections were done at 30, 60 and 120 or upto 240 min., via retro-orbital route, under light ether anesthesia (Diabetes Obesity Metabolism, 7, 307, 2005; Diabetes, 52, 751, 2003).
Blood samples were centrifuged and the separated serum was immediately subjected for the glucose estimation. Serum for insulin estimation was stored at −70° C. until used for the insulin estimation. The glucose estimation was carried out with DPEC-GOD/POD method (Ranbaxy Fine Chemicals Limited, Diagnostic division, India), using Spectramax-190, in 96-microwell plate reader (Molecular devices Corporation, Sunnyvale, Calif.). […] The AUC and BCAUC obtained from graphs were analyzed for one way ANOVA, followed by Dunnett's post test, using Graph Pad prism software.

[1] = Pharmacokinetic study in Wistar rats; format: in vivo; conditions: rat, plasma, po; male wistar rats, 2 mg/kg orally, n = 6, Mean ± SD
Protocol: Pharmacokinetic Study in Wistar Rats
The pharmacokinetic parameters of test compounds were determined in male wistar rats (n=6). Briefly, test compounds were administered orally/iv on a body weight basis to overnight fasted rats. Serial blood samples were collected in microcentrifuge tubes containing EDTA at pre-dose and post-dose after compounds administration, over a period of 168 hrs. Blood was collected at various time points and centrifuged at 4° C. The obtained plasma was frozen, stored at −70° C. and the concentrations of compounds in plasma were determined by the LC-MS/MS (Shimadzu LC 1 OAD, USA), using YMC hydrosphere C18 (2.0×50 mm, 3 μm) column (YMC Inc., USA). The pharmacokinetic parameters, such as Tmax, t1/2, AUC and % F were calculated using a non-compartmental model of WinNonlin software version 5.2.1.

T1 sequence (P27487 39-766 limits assumed): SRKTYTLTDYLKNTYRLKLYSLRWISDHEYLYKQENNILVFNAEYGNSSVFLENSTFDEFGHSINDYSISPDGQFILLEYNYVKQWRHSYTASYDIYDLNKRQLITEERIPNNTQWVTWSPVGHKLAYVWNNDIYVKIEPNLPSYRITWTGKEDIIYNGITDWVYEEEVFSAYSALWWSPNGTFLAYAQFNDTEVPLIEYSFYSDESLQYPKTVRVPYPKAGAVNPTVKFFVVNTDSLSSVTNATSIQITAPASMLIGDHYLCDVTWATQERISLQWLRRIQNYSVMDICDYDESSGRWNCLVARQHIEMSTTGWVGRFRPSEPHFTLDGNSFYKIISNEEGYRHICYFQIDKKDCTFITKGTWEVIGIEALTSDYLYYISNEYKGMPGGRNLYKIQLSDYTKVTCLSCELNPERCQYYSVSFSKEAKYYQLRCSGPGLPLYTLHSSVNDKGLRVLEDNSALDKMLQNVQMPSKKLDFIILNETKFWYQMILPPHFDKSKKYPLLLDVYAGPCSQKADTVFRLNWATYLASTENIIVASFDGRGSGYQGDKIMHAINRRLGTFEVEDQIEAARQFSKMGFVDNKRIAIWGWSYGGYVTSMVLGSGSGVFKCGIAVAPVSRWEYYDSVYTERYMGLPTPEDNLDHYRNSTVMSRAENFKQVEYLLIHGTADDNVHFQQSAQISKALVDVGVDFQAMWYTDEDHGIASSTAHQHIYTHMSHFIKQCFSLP

Structure (SMILES) | IC50 (DPP-IV enzyme) [nM] | AUC [1] [ng·h/mL] | Cmax [1] [ng/mL] | half-life [1] [h] | change in vivo at 0.3 mg/kg (C57BL/6J mice) [%]
CS(=O)(=O)N1CC2CN([C@H]3CO[C@H](c4cc(F)ccc4F)[C@@H](N)C3)CC2C1 (stereo partly drawn) [Compound 1, (2R,3S,5R)-2-(2,5-difluorophenyl)-5-(5-(methylsulfonyl)-hexahydro-pyrrolo[3,4-c]pyrrol-2(1H)-yl)tetrahydro-2H-pyran-3-amine] | < 30 | 888 ± 129 | 148 ± 34.2 | 33.3 ± 2.07 | -22.5 ± 4.5
N[C@H]1C[C@@H](N2CC3COCC3C2)CO[C@@H]1c1cc(F)ccc1F (stereo partly drawn) [Compound 3, (2R,3S,5R)-2-(2,5-difluorophenyl)-5-(tetrahydro-1H-furo[3,4-c]pyrrol-5(3H)-yl)tetrahydro-2H-pyran-3-amine] | < 100 | 2970 ± 1070 | 301 ± 44.3 | 48.2 ± 11.1 | -27.6 ± 1.6
CS(=O)(=O)N1CC2=C(CN([C@H]3CO[C@H](c4cc(F)ccc4F)[C@@H](N)C3)C2)C1 [Compound 8, (2R,3S,5R)-2-(2,5-difluorophenyl)-5-(5-(methylsulfonyl)-5,6-dihydropyrrolo[3,4-c]pyrrol-2(1H,3H,4H)-yl)tetrahydro-2H-pyran-3-amine] | < 10 | 4750 ± 647 | 459 ± 52.2 | 59.5 ± 6.44 | -49.1 ± 3.6
N[C@H]1C[C@@H](N2CC3=C(C2)CS(=O)(=O)C3)CO[C@@H]1c1cc(F)ccc1F [Compound 17, 5-((3R,5S,6R)-5-amino-6-(2,5-difluorophenyl)tetrahydro-2H-pyran-3-yl)-3,4,5,6-tetrahydro-1H-thieno[3,4-c]pyrrole 2,2-dioxide] |  | 1550 ± 114 | 419 ± 45.5 | 32.5 ± 5.91 | -27.3 ± 3.3

Now from value to molecule, other results behind:

IC50 (DPP-IV enzyme) [nM] | AUC [1] [ng·h/mL] | Cmax [1] [ng/mL] | half-life [1] [h] | Structure (SMILES) | change in vivo at 0.3 mg/kg (C57BL/6J mice) [%]
< 10 |  |  |  | N[C@H]1C[C@@H](N2CC3=C(CN(C(=O)Nc4ccccc4)C3)C2)CO[C@@H]1c1cc(F)ccc1F [Compound 45, 5-((3R,5S,6R)-5-amino-6-(2,5-difluorophenyl)tetrahydro-2H-pyran-3-yl)-N-phenyl-3,4,5,6-tetrahydropyrrolo[3,4-c]pyrrole-2(1H)-carboxamide] | -34.9 ± 4.4
< 100 |  |  |  | CC(=O)N[C@H]1C[C@@H](N2CC3=C(C2)CN(S(C)(=O)=O)C3)CO[C@@H]1c1cc(F)ccc1F [Compound 46, N-((2R,3S,5R)-2-(2,5-difluorophenyl)-5-(5-(methylsulfonyl)-5,6-dihydropyrrolo[3,4-c]pyrrol-2(1H,3H,4H)-yl)tetrahydro-2H-pyran-3-yl)acetamide] | -9.3 ± 3.8
< 100 |  |  |  | CC(=O)N[C@H]1C[C@@H](N2CC3=C(CN(C(C)=O)C3)C2)CO[C@@H]1c1cc(F)ccc1F [Compound 47, N-((2R,3S,5R)-5-(5-acetyl-5,6-dihydropyrrolo[3,4-c]pyrrol-2(1H,3H,4H)-yl)-2-(2,5-difluorophenyl)tetrahydro-2H-pyran-3-yl)acetamide] | 8.6 ± 5.9
< 10 |  |  |  | N[C@H]1C[C@@H](N2CC3=C(CN(C=O)C3)C2)CO[C@@H]1c1cc(F)ccc1F [Compound 48, 5-((3R,5S,6R)-5-amino-6-(2,5-difluorophenyl)tetrahydro-2H-pyran-3-yl)-3,4,5,6-tetrahydropyrrolo[3,4-c]pyrrole-2(1H)-carbaldehyde] | -38.5 ± 1.5
< 10 |  |  |  | N[C@H]1C[C@@H](N2CC3=C(CN(C(=O)C(F)(F)F)C3)C2)CO[C@@H]1c1cc(F)ccc1F [Compound 50, 1-(5-((3R,5S,6R)-5-amino-6-(2,5-difluorophenyl)tetrahydro-2H-pyran-3-yl)-5,6-dihydropyrrolo[3,4-c]pyrrol-2(1H,3H,4H)-yl)-2,2,2-trifluoroethanone] | -30 ± 1.4
